Assay results reported in ChEMBL document CHEMBL5441456, “ASAP - SARS-CoV-2 nsp3 macrodomain dose response” (2024).
“And” between values parts separate entries of the source, which are not always exact repeats. Equal values may be shown once.

Molecular target: Replicase polyprotein 1ab (Severe acute respiratory syndrome coronavirus 2, UniProt P0DTD1)
Assay: Functional biochemical assay to identify treatments for viral infectious disease that targets SARS-COV-2 nsp3 macrodomain, whereby the mechanism of action displaces an ADP-Ribose modified peptide from the binding site. Utilizing a time-resolved fluorescence method to measure binding by reading the emitted fluorescence intensity in two wavelengths.

| SMILES | IC50 |
| --- | --- |
| Cn1ncc(-c2cc3c(N[C@@H](c4ccc5c(c4)OCCO5)C(C)(C)C)ncnc3[nH]2)c1C#N | 0.309 µM and 0.332 µM |
| c1ccc(-c2cc(CNc3ncnc4[nH]ccc34)on2)cc1 | > 124 µM |
| Cc1[nH]c2ncnc(NC(=O)C3(c4ccc(F)cc4)CCC3)c2c1C | 19.5 µM and 21.8 µM |
| c1nc(N[C@@H](c2ccc3c(c2)OCCO3)C2CNC2)c2cc[nH]c2n1 | > 99.5 µM |
| CC(C)[C@H](Nc1ncnc2c1NCCO2)c1ccc2c(c1)S(=O)(=O)CCC2 | > 99.5 µM |
| COc1ccc([C@H](CC(=O)O)NC(=O)c2ccc(NC(=O)NC3CC3)cc2)cc1 | 54.1 µM and 51.2 µM and 38.1 µM |
| CC(C)n1nccc1S(=O)(=O)Nc1cnc2[nH]ccc2c1 | > 99.5 µM |
| O=C(Nc1ncnc2c(C(=O)Nc3ccccc3C(=O)N3CCCC3)csc12)NC1CC1 | > 99.5 µM |
| CC(C)[C@H](Nc1ncnc2[nH]c(-c3cnn(CC(N)=O)c3)cc12)c1ccc2c(c1)OCCO2 | 90 µM and 93.5 µM |
| CC(C)[C@@H](Nc1ncnc2[nH]ccc12)c1ccc2c(c1)S(=O)(=O)N(C)CC2 | 5.76 µM and 17 µM |
| CCn1ccc(-c2cc3c(N[C@@H](c4ccc5c(c4)OCCO5)C(C)C)ncnc3[nH]2)n1 | 1.32 µM and 1.53 µM |
| CCNC(=O)c1cc2c(N[C@H](c3ccc4c(c3)S(=O)(=O)CCC4)C(C)C)ncnc2[nH]1 | 1.28 µM |
| CC(C)[C@@H](Nc1ncnc2[nH]c(-c3cc[nH]n3)cc12)c1ccc2c(c1)OCCO2 | 1.81 µM and 1.88 µM |
| CCNC(=O)c1cc2c(N[C@H](c3ccnc(N)c3)C(C)C)ncnc2[nH]1 | 1.79 µM |
| Cc1ncc(CCNC(=O)c2csc3c(NC(=O)NC4CC4)ncnc23)s1 | > 99.5 µM |
| CCNC(=O)c1cc2c(N[C@@H](c3nc4ccccc4o3)C(C)C)ncnc2[nH]1 | 20.5 µM and 17.6 µM |
| c1nc(N[C@@H](c2ccc3c(c2)OCCO3)C2CCCC2)c2cc[nH]c2n1 | 2.23 µM and 2.25 µM |
| CC(C)[C@@H](Nc1nc(N(C)C)nc2[nH]ccc12)c1ccc2c(c1)OCCO2 | > 99.5 µM |
| CS(=O)(=O)Nc1cccc([C@@H](CC(=O)O)NC(=O)c2ncnc3[nH]ccc23)c1 | 50.4 µM and 38.6 µM and 39.5 µM |
| O=C(N[C@@H](Cc1ccc(Br)cc1)C(=O)O)c1ncnc2[nH]ccc12 | > 99.5 µM |
| O=C(O)C[C@@H](NC(=O)c1ccnc2ncccc12)c1ccc(Br)cc1 | 87.9 µM and 92.8 µM |
| COc1c(Cl)ncnc1N[C@@H](c1ccc2c(c1)S(=O)(=O)CCC2)C(C)C | > 99.5 µM |
| CNC(=O)c1c[nH]c2ncnc(N[C@@H](c3ccc4c(c3)OCCO4)C(C)C)c12 | 0.728 µM and 0.692 µM |

| SMILES | IC50 |
| --- | --- |
| CC(C)[C@@H](Nc1ncnc2[nH]ccc12)c1nc2ccccc2[nH]1 | 96.6 µM |
| CC(C)[C@@H](Nc1ncnc2[nH]c(-c3ccn(C)n3)cc12)c1ccc2c(c1)OCCO2 | 0.972 µM and 1.02 µM |
| Cc1nn(C)cc1-c1cc2c(N[C@@H](c3ccc4c(c3)OCCO4)C(C)C)ncnc2[nH]1 | 0.411 µM and 0.493 µM and 0.469 µM |
| COc1ccc([C@@H](NC(=O)c2ncnc3[nH]ccc23)C(C)(C)c2nnn[nH]2)cc1 | 1.69 µM and 3.91 µM |
| CC(C)[C@@H](Nc1ncnc2[nH]c(C3=CCCN(C(=O)OCc4ccccc4)C3)cc12)c1ccc2c(c1)OCCO2 | > 99.5 µM |
| CC(C)[C@@H](Nc1ncnc2[nH]cc(Br)c12)c1ccc2c(c1)OCCO2 | 10.1 µM and 11.8 µM |
| c1nc(N2CCC[C@@H](Nc3ccc4c(c3)OCCO4)C2)c2cc[nH]c2n1 | > 99.5 µM |
| CC(C)[C@@H](Nc1ncnc2[nH]c(-c3cnn(CC4CC4)c3)cc12)c1ccc2c(c1)OCCO2 | 0.804 µM and 0.853 µM |
| Cc1[nH]c2ncnc(NC(=O)c3cncnc3)c2c1C | > 99.5 µM |
| COc1cccc([C@@H](Nc2ncnc3[nH]ccc23)C(C)C)c1 | 25.7 µM and 39.9 µM |
| CC(C)[C@H](Nc1ncnc2[nH]c(C(=O)N[C@H]3CCN(C)C3)cc12)c1ccc2c(c1)S(=O)(=O)CCC2 | 3.15 µM |
| CC(C)[C@@H](Nc1ncnc2[nH]ccc12)C(N)=O | 30.7 µM |
| Cc1ccc2c(NC(=O)c3ccc(NC(=O)NC4CC4)cc3)c(C(=O)O)sc2n1 | > 99.5 µM |
| COC[C@@H]1C[C@@H]1CNc1ccc([C@@H](CC(=O)O)NC(=O)c2ncnc3[nH]ccc23)cc1 | 44.5 µM and 43.9 µM |
| CC(C)[C@@H](NCc1cccc2[nH]ccc12)c1ccc2c(c1)OCCO2 | > 99.5 µM |
| Cc1c(C#N)cncc1-c1cc2c(N[C@@H](c3ccc4c(c3)OCCO4)C(C)C)ncnc2[nH]1 | 19.2 µM and 16.3 µM |
| COC(=O)c1c[nH]c(-c2cc3c(N[C@@H](c4ccc5c(c4)OCCO5)C(C)C)ncnc3[nH]2)c1 | 2.98 µM and 3.58 µM |
| O=C(Nc1ccc(C(=O)Nc2c(C(=O)O)sc3cnccc23)cc1)NC1CC1 | > 99.5 µM |
| COC(=O)c1cc(-c2cc3c(N[C@@H](c4ccc5c(c4)OCCO5)C(C)C)ncnc3[nH]2)c[nH]1 | 4.97 µM and 5 µM |
| COc1ccc([C@H](CC(=O)O)NC(=O)c2ncnc3[nH]ccc23)cc1 | 1.44 µM |
| O=C(N[C@@H]1CCC[C@@H]1C(=O)O)c1cnn2ccc(C3CCN(C(=O)c4ccc(Cl)c(Cl)c4)CC3)cc12 | 38 µM and 40.8 µM |
| CC(C)[C@@H](Nc1ncnc2[nH]c(C(=O)NCCc3c[nH]nn3)cc12)c1ccc2c(c1)OCCO2 | 1.29 µM and 0.947 µM |
| CC(C)[C@@H](Nc1ncnc2[nH]c(-c3cc4c(C#N)cccc4[nH]3)cc12)c1ccc2c(c1)OCCO2 | > 99.5 µM |

| SMILES | IC50 |
| --- | --- |
| O=C(Nc1ncnc2c(C(=O)NC3(c4ccccc4F)CCCCC3)csc12)NC1CC1 | > 99.5 µM |
| CC(C)[C@H](Nc1ncnc2cn[nH]c12)c1ccc2c(c1)S(=O)(=O)CCC2 | > 99.5 µM |
| CC(C)[C@@H](Nc1ncnc2[nH]c(-c3cnc(N)nc3)cc12)c1ccc2c(c1)S(=O)(=O)CCC2 | 0.085 µM and 0.062 µM and 0.106 µM |
| N=C(N)C[C@@H](NC(=O)c1ncnc2[nH]ccc12)c1ccc(Br)cc1 | > 99.5 µM |
| COCCn1ncc(-c2cc3c(N[C@@H](c4ccc5c(c4)OCCO5)C(C)C)ncnc3[nH]2)c1C#N | 0.394 µM and 0.449 µM |
| COc1ccc(CN(c2ncnc3[nH]ccc23)C(C)C)cc1OC | > 99.5 µM |
| CC(C)[C@@H](Nc1ncnc2[nH]c(-c3cnn(C)c3)cc12)c1ccc2c(c1)OCCO2 | 0.538 µM and 0.616 µM and 0.618 µM |
| CC(C)[C@@H](Nc1ncnc2[nH]c(-c3ccn4cnnc4c3)cc12)c1ccc2c(c1)S(=O)(=O)CCC2 | 0.093 µM and 0.073 µM and 0.126 µM |
| CC(C)[C@@H](Nc1ncnc2[nH]c(-c3cccc4c3CN(C)C4=O)cc12)c1ccc2c(c1)OCCO2 | 2.15 µM and 2.54 µM |
| COc1ccc(Nc2ncnc3[nH]ccc23)cc1OC | > 99.5 µM |
| CC(C)[C@H](NC(=O)c1ncnc2[nH]ccc12)c1ccc2c(c1)S(=O)(=O)CCC2 | > 99.5 µM |
| CC(C)[C@@H](Nc1ncnc2[nH]c(-c3cnn(CC(N)=O)c3)cc12)c1ccc2c(n1)NC(=O)CO2 | 0.25 µM and 0.302 µM and 0.355 µM |
| Cc1cccc(C)c1-n1nnnc1CSc1ncnc2[nH]cnc12 | > 99.5 µM |
| CC(C)[C@@H](Nc1ncnc2[nH]ccc12)c1cccc(S(C)(=O)=O)c1 | 96.4 µM |
| C=CCn1c(Sc2ncnc3[nH]ccc23)nc2sccc2c1=O | > 99.5 µM |
| COc1ccc([C@@H](CC(=O)O)NC(=O)c2c[nH]c3c(NC(=O)NC4CC4)cccc23)cc1 | > 99.5 µM |
| CC(C)[C@@H](Nc1nccc2[nH]c(=O)[nH]c12)c1ccc2c(c1)S(=O)(=O)CCC2 | > 99.5 µM |
| CC(C)[C@@H](Nc1ncncc1N1CCOCC1)c1ccc2c(c1)S(=O)(=O)CCC2 | > 99.5 µM |
| O=C(CCN(Cc1cccc(Cl)c1)C(=O)c1ccc(F)cn1)N1CCNCC1 | > 99.5 µM |
| O=C(O)C[C@@H](NC(=O)c1c[nH]c2ncncc12)c1ccc(NCC2=NO[C@@H]3COC[C@H]23)cc1 | > 99.5 µM |
| N#CC[C@@H](NC(=O)c1ncnc2[nH]ccc12)c1ccc(Br)cc1 | > 99.5 µM |
| CN(C)c1ccc(C(=O)N[C@@H](CC(=O)O)c2ccc(Br)cc2)nc1 | > 99.5 µM |
| C[C@@H](C(=O)O)[C@@H](NC(=O)c1ncnc2[nH]ccc12)c1ccc(Br)cc1 | 0.808 µM and 0.532 µM |

| SMILES | IC50 |
| --- | --- |
| CC(C)[C@@H](Nc1ncnc2[nH]c(C(=O)NCC3=NCCCN3)cc12)c1ccc2c(c1)OCCO2 | 3.68 µM and 7.82 µM |
| Cc1nnc(Nc2ccc([C@@H](CC(=O)O)NC(=O)c3ncnc4[nH]ccc34)cc2)o1 | 12.2 µM and 10.1 µM |
| CC(C)[C@@H](NC(=O)c1ccccn1)c1ccc2c(c1)OCCO2 | > 99.5 µM |
| O=C(N[C@H]1CCC[C@H]1C(=O)O)c1cnn2ccc(C3CCN(C(=O)c4ccccc4)CC3)cc12 | 35.8 µM |
| CC(C)[C@@H](NC(=O)c1ccnc(-n2ccnc2)c1)c1ccc2c(c1)OCCO2 | > 99.5 µM |
| OC[C@@H](Nc1ncnc2[nH]c(I)cc12)c1ccccc1 | > 124 µM |
| CO[C@@H]1C[C@@H](C(=O)O)N(c2ncnc3[nH]ccc23)C1 | > 99.5 µM |
| CC(C)[C@H](Nc1ncnc2[nH]c(-c3cnn(C)c3C#N)cc12)c1ccc2c(c1)OCCO2 | 0.238 µM and 0.901 µM |
| CC(C)[C@@H](Nc1ncnc2[nH]cc(S(=O)(=O)N(C)C)c12)c1ccc2c(c1)OCCO2 | 3.45 µM and 3.98 µM |
| O=C(O)C[C@@H](NC(=O)c1ccc(NC(=O)NC2CC2)cc1)c1cccc(C(F)F)c1 | 76.4 µM and 72.3 µM |
| Cc1nc(C(=O)N2CCC(c3ccn4ncc(C(=O)N5CCCCC5)c4c3)CC2)c(=O)[nH]c1C | > 99.5 µM |
| CC(C)[C@@H](Nc1ncnc2[nH]c(-c3cnc4n3CCC4)cc12)c1ccc2c(c1)S(=O)(=O)CCC2 | 0.051 µM and 0.043 µM and 0.065 µM and 0.046 µM and 0.052 µM |
| CC(C)[C@@H](Nc1ncnc2[nH]ccc12)c1cccs1 | 14.9 µM |
| COCCNC(=O)c1c[nH]c2ncnc(N[C@@H](c3ccc4c(c3)S(=O)(=O)CCC4)C(C)C)c12 | 0.326 µM |
| CC(C)[C@@H](Nc1ncc2c(n1)CCCC2)c1ccc2c(c1)OCCO2 | > 99.5 µM |
| Cc1cc(-c2cc3c(N[C@@H](c4ccc5c(c4)OCCO5)C(C)C)ncnc3[nH]2)co1 | 8.7 µM and 13.6 µM and 17 µM |
| CC(C)[C@@H]1C(=O)NCCN1c1ncnc2[nH]ccc12 | 35.3 µM |
| Cc1[nH]c2ncnc(NC(=O)c3ccc(S(C)(=O)=O)nc3)c2c1C | > 99.5 µM |
| O=C(O)C[C@@H](NC(=O)c1ccnc2cn[nH]c12)c1ccc(Br)cc1 | 10.3 µM and 9.53 µM |
| CC(C)[C@@H](Nc1ncnc2[nH]c(C3CCS(=O)(=O)CC3)cc12)c1ccc2c(c1)OCCO2 | 1.19 µM and 1.78 µM |
| CC(C)[C@@H](Nc1ncnc2[nH]c([C@@H]3CCCNC3)cc12)c1ccc2c(c1)OCCO2 | 3.49 µM and 5.54 µM and 5.19 µM |
| CC(C)[C@H](Nc1cc(N2CCNCC2)ncn1)c1ccc2c(c1)S(=O)(=O)CCC2 | > 99.5 µM |
